Measured values: patent publication US4987128A, “Novel 10β-alkynyl-steroids” (Roussel Uclaf, priority 1986, dated 1991)

Biological target: T1, mineralo-corticoid receptor of the rat kidney (Rattus norvegicus, UniProt P22199)
T1 construct: The kidneys were then removed, decapsulated and homogenized at 0° C; from tissue; host or cells: kidney of adrenalectomized male Sprague-Dawley EOPS rats, 105,000 g supernatant (cytosol)
T1 sequence (P22199 1-981): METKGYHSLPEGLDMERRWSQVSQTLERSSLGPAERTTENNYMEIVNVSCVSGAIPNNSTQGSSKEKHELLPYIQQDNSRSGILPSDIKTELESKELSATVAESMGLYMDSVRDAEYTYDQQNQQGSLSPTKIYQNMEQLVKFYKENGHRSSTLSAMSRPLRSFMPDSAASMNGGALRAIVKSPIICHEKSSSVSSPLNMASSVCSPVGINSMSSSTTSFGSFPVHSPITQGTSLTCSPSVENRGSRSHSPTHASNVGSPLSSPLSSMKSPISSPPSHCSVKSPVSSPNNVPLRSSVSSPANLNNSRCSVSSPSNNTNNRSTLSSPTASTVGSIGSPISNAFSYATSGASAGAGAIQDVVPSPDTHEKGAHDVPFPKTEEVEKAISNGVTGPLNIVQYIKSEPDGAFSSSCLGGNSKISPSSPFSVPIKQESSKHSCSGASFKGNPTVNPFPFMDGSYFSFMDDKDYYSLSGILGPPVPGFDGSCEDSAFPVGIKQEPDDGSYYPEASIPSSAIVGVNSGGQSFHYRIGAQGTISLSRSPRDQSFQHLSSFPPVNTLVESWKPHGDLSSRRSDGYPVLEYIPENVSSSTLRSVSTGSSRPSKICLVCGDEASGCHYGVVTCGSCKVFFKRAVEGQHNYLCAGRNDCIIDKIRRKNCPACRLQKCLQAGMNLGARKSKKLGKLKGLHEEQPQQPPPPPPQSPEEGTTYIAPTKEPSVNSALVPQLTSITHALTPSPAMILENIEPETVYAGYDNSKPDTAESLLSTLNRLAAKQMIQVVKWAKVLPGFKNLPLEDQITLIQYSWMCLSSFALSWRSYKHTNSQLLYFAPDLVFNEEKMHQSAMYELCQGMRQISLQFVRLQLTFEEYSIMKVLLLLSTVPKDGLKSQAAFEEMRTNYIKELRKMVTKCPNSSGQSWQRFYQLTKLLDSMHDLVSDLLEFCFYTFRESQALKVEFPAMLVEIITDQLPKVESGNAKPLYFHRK
Experiment: Anti-aldosterone activity: displacement of tritiated aldosterone from the mineralo-corticoid receptor of the rat kidney (relative liaison affinity)
Format: binding
Conditions: vs cold aldosterone as reference hormone, rat kidney cytosol
Method: Study of the anti-aldosterone activity of the mineralo-corticoid receptor of the rat kidney
Male Sprague-Dawley EOPS rats weighing 140 to 160 g, suprarenalectomized 4 to 6 days earlier, were killed and their kidneys were perfused in situ with 50 ml of Tris 10 mM-saccharose 0.25M buffer, HCl pH 7.4. The kidneys were then removed, decapsulated and homogenized at 0° C. with a Potter polytetrafluoroethylene glass (1 g of tissue for 3 ml of buffer). The homogenate was centrifuged for 10 minutes at 800 g at 0° C. To eliminate the fixation of the tritiated aldosterone on the glucocorticoid receptor, 11β,17β-dihydroxy-17α-(1-propynyl)-Δ^1,4,6 -androstatrien-3-one which fixes uniquely on the glucocorticoid receptor was added to the supernatant at a final concentration of 10^-6 M. This supernatant was ultracentrifuged at 105,000 g for 60 minutes at 0° C. and aliquots of the supernatant were incubated at 0° C. with a constant concentration (T) of tritiated aldosterone in the presence of increasing concentrations (0-2500×10^-9 M) of cold aldosterone or of the cold product under study. After an incubation time (t), the concentration of tritiated aldosterone bound (B) was measured by the technique of adsorption on charcoal-dextran.
The calculation of the relative liaison affinity (RLA) was carried out as follows: The two following curves were drawn: the percentage of tritiated hormone bonded B/T as a function of the logarithm of the concentration of the cold reference hormone, and B/T as a function of the logarithm of the concentration of the cold product under test. The straight line of the equation I50 =(B/T max+B/T min)/2 was determine B/T max=percentage of the tritiated hormone bonded for an incubation of this triated hormone at the concentration (T), B/T min=percentage of the tritiated hormone bonded for an incubation of this tritiated hormone at the concentration (T) in the presence of a great excess of cold hormone (2500.10^-9 M). The intersections of the straight line I50 and the curves enabled the concentrations of the cold reference hormone (CH) and of the cold product tested (CX) to be evaluated which inhibited by 50% the bonding of the tritiated hormone on the receptor. The relative liaison affinity (RAL) of the product tested is determined by the equation: [formula] The following results were obtained;

[1] = incubation time at 0° C.: 1 hour
[2] = incubation time at 0° C.: 24 hours

Structure (SMILES) | relative liaison affinity (RLA) [1] | relative liaison affinity (RLA) [2]
C#C[C@]12CCC(=O)C=C1CC[C@@H]1[C@@H]2CC[C@@]2(C)[C@H]1CC[C@@]21CCC(=O)O1 [Example 1, Gamma-lactone of 10β-ethynyl-17β-hydroxy-3-oxo-19-nor-17α-Δ^4-pregnen 21-carboxylic acid] | 125 | 65
CC#C[C@]12CCC(=O)C=C1CC[C@@H]1[C@@H]2CC[C@@]2(C)[C@H]1CC[C@@]21CCC(=O)O1 [Example 3, γ-lactone of 17β-hydroxy-3-oxo-10β-(1-propynyl)-19-nor-17α-Δ^4-pregnene-21-carboxylic acid] | 50 | 43
